Experimental data as given in patent publication US6689813B2 (Biostatin Gyogyszerkutato-Fejleszto kft., priority 1998, dated 2004).
Where no end group is shown, it is not given here. [ ]: non-standard residue; d: D form.

System: Wistar rats
Assay: 1% mustard oil-induced neurogenic inflammation (Evans blue plasma extravasation, foot skin)
Format: in vivo, rat
Method: Thirty minutes after acute bilateral denervation of the lower limbs (transsection of the saphenous and sciatic nerves), 50 mg/kg of Evans blue dye was administered to the tail vein of nembutal-anaesthetized (pentobarbital, 40 mg/kg i.p.) Wistar rats (150-220 g body weight; 5 to 7 animals in each group). […] The mustard oil induces a so-called neurogenic inflammation by the selective stimulation of the peripheral endings of CSPAN's and by releasing the mediators being present therein (chiefly tachykinins and CGRP); this neurogenic inflammation appears as a vasodilatation in the area of arterioles and in the form of a plasma extravasation at the venular side. Since the dye Evans blue is bound to serum albumin in the vascular bed, its precipitation and accumulation in the upper skin surface of foot are proportional to the extent of plasma extravasation. Thus, the quantitative determination of intensity of the inflammation becomes possible. After the painting with mustard oil, the animals were bled, the foot dorsum skins were cut out and their weights were determined. The amount of dye extracted during 72 hours of incubation in formamide was determined at 620 nm on a spectrophotometer (Spectromon 195). The amount (expressed as μg) of the extravasated Evans blue related to one g of wet tissue was calculated by means of the following formula:
Evans blue (μg/g)=E×V×k/m
E is the light absorption of the solution, V means the volume (ml) of the solution, m is the weight […] of the skin cut out from the foot dorsum skin; and k is a constant determined on the basis of a dilution series, which is characteristic of the dye solution.

## D-Phe-Cys-Tyr-D-Trp-Lys-Cys-Thr-NH2 ([dF]CY[dW]KCT-NH2; cysteine pairing not given here) [TT-232]
20 μg/kg i.p., 1% mustard oil
  Decrease % (Evans blue extravasation vs control): 63.616%
20 μg/kg i.p., 1% mustard oil on feet, control 169.525
  Evans blue extravasation: 61.68 µg/g
20 μg/kg, 20 minutes after i.p. administration
  inhibition of mustard oil-induced neurogenic inflammation (in words): significantly inhibited
dose/effect relation, FIG. 2
  equipotent dose ratio vs somatostatin (times lower dose): ~8 times
  highest antiinflammatory effect relative to highest effect of somatostatin: double
Intravenous dose of 2.5 μg/kg, 2 hours after administration (FIG. 2.a)
  inhibition of inflammation: 35%
